Read-outs that look alike come from different tables or passages of the source.
Key:
[1] = system: P-P70S6K (T389); assay: Cell based AlphaLISA assay, inhibition of P-P70S6K (T389) (mTORC1 substrate phosphorylation) in MDA-MB-468 cells; conditions: Homo sapiens, 4 h, two to four hours at 37° C.
Method: (§1) Cell Based AlphaLISA Assays for Determining IC50 for Inhibition of P-Akt (S473), P-4E-BP1 (T37/46), and P-P70S6K (T389) in MDA-MB-468 Cells
(§2) mTOR Kinase Cellular Assay
(§3) To measure functional activity of mTORC1 and mTORC2 in cells the phosphorylation of 4EBP1 (Thr37/46) and P70S6K (Thr389), and AKT1/2/3 (Ser473) was monitored using AlphaLisa SureFire Ultra Kits (Perkin Elmer). […] Incubations were terminated by removal of the assay buffer and addition of lysis buffer provided with the assay kit. Samples were processed according to the manufacturer's instructions. The Alpha signal from the respective phosphoproteins was measured in duplicate using a microplate reader (Envision, Perkin-Elmer or Spectramax M5, Molecular Devices). Inhibitor concentration response curves were analyzed using normalized IC50 regression curve fitting with control based normalization.

[2] = system: P-4E-BP1 (T37/46); assay: Cell based AlphaLISA assay, inhibition of P-4E-BP1 (T37/46) (mTORC1 substrate phosphorylation) in MDA-MB-468 cells; conditions: Homo sapiens, two to four hours at 37° C.
Method: as §1, §2, §3

[3] = system: P-Akt (S473); assay: Cell based AlphaLISA assay, inhibition of P-Akt (S473) (mTORC2 substrate phosphorylation) in MDA-MB-468 cells; conditions: Homo sapiens, two to four hours at 37° C.
Method: as §1, §2, §3

[4] = AlphaLISA, read-out: pIC50 for Inhibition of mTORC1 and mTORC2 Substrate Phosphorylation, P-P70S6K-(T389) (converted)
[5] = MDA-MB-468, 4 h, AlphaLISA, read-out: pIC50 for Inhibition of mTORC1 and mTORC2 Substrate Phosphorylation, P-4E-BP1-(T37/46) (converted)
[6] = MDA-MB-468, 4 h, AlphaLISA, read-out: pIC50 for Inhibition of mTORC1 and mTORC2 Substrate Phosphorylation, p-AKT 1/2/3 -(S473) (converted)
[7] = 4 h, AlphaLISA, read-out: pIC50 for Inhibition of mTORC1 and mTORC2 Substrate Phosphorylation, P-4E-BP1-(T37/46) (converted)
[8] = 4 h, AlphaLISA, read-out: pIC50 for Inhibition of mTORC1 and mTORC2 Substrate Phosphorylation, p-AKT 1/2/3 -(S473) (converted)

| SMILES | IC50 [1, 4] [nM] | IC50 [2, 5] [nM] | IC50 [3, 6] [nM] | IC50 ([2]; MDA-MB-468, 4 h, AlphaLisa SureFire Ultra, read-out: IC50 for Inhibition of mTORC1 and mTORC2 Substrate Phosphorylation, p-4E-BP1-(T37/46)) [nM] | IC50 ([3]; MDA-MB-468, 4 h, AlphaLisa SureFire Ultra, read-out: IC50 for Inhibition of mTORC1 and mTORC2 Substrate Phosphorylation, p-AKT1/2/3-(S473)) [nM] | IC50 ([1]; AlphaLisa SureFire Ultra, read-out: IC50 for Inhibition of mTORC1 and mTORC2 Substrate Phosphorylation, p-P70S6K-(T389)) [nM] | IC50 [2, 7] [nM] | IC50 [3, 8] [nM] |
| --- | --- | --- | --- | --- | --- | --- | --- | --- |
| CO[C@@H]1C[C@H](C[C@@H](C)[C@@H]2CC(=O)[C@H](C)/C=C(\C)[C@@H](O)[C@@H](OC)C(=O)[C@H](C)C[C@H](C)/C=C/C=C/C=C(\C)[C@@H](c3ccco3)C[C@@H]3CC[C@@H](C)[C@@](O)(O3)C(=O)C(=O)N3CCCC[C@H]3C(=O)O2)CC[C@H]1OCCCCc1cn(CCOCCOCCOCCOCCOCCOCCC(=O)NCCCCn2nc(-c3ccc4oc(N)nc4c3)c3c(N)ncnc32)nn1 (stereo in doubt) [Example 19] | < 1 |  |  |  |  |  |  |  |
| CO[C@H]1C[C@@H]2CC[C@@H](C)[C@@](O)(O2)C(=O)C(=O)N2CCCC[C@H]2C(=O)O[C@H]([C@H](C)C[C@@H]2CC[C@H](OCCCCc3cn(CCOCCOCCOCCOCCOCCOCCC(=O)NCCCCn4nc(-c5cccc(C(=O)NC6=NCCS6)c5)c5c(N)ncnc54)nn3)[C@H](OC)C2)CC(=O)[C@H](C)/C=C(\C)[C@@H](O)[C@@H](OC)C(=O)[C@H](C)C[C@H](C)/C=C/C=C/C=C/1C (stereo in doubt) [Example 41] | < 1 | 3.16 to 31.6 | > 1000 |  |  |  |  |  |
| CO[C@H]1C[C@@H]2CC[C@@H](C)[C@@](O)(O2)C(=O)C(=O)N2CCCCC2C(=O)O[C@H]([C@H](C)C[C@@H]2CC[C@H](n3cc(COCCOCCOCCOCCOCCOCCOCCOCCOCCOCCC(=O)NCCCCn4nc(-c5ccc6oc(N)nc6c5)c5c(N)ncnc54)nn3)[C@H](OC)C2)CC(=O)[C@H](C)/C=C(\C)[C@@H](O)[C@@H](OC)C(=O)[C@H](C)C[C@H](C)/C=C/C=C/C=C/1C (stereo in doubt) [Example 195] | 1 to 10 | 3.16 to 31.6 | 3.16 to 31.6 |  |  |  |  |  |
| CO[C@H]1C[C@@H]2CC[C@@H](C)[C@@](O)(O2)C(=O)C(=O)N2CCCC[C@H]2C(=O)O[C@H]([C@H](C)C[C@@H]2CC[C@H](n3cc(COCCOCCOCCOCCC(=O)OCCOCCOCCOCCOCCC(=O)NCCCCn4nc(-c5ccc6oc(N)nc6c5)c5c(N)ncnc54)nn3)[C@H](OC)C2)CC(=O)C(C)/C=C(\C)[C@@H](O)[C@@H](OC)C(=O)[C@H](C)C[C@H](C)/C=C/C=C/C=C/1C (stereo in doubt) [Example 197] | 1 to 10 | 3.16 to 31.6 | 31.6 to 1000 |  |  |  |  |  |
| CO[C@H]1C[C@@H]2CC[C@@H](C)[C@@](O)(O2)C(=O)C(=O)N2CCCC[C@H]2C(=O)O[C@H]([C@H](C)C[C@@H]2CC[C@@H](OCCCCc3cn(CCOCCOCCOCCOCCOCCOCCOCCOCCC(=O)NCCCCn4nc(-c5ccc6oc(N)nc6c5)c5c(N)ncnc54)nn3)[C@H](OC)C2)CC(=O)[C@H](C)/C=C(\C)[C@@H](O)[C@@H](OC)C(=O)[C@H](C)C[C@H](C)/C=C/C=C/C=C/1C [Example 1] | < 1 | < 3.16 | < 3.16 | 1 | 3.9 | 0.3 |  |  |
| CO[C@H]1C[C@@H]2CC[C@@H](C)[C@@](O)(O2)C(=O)C(=O)N2CCCC[C@H]2C(=O)O[C@H]([C@H](C)C[C@@H]2CC[C@@H](OCCCCc3cn(CCOCCOCCOCCOCCOCCC(=O)NCCCCn4nc(-c5ccc6oc(N)nc6c5)c5c(N)ncnc54)nn3)[C@H](OC)C2)CC(=O)[C@H](C)/C=C(\C)[C@@H](O)[C@@H](OC)C(=O)[C@H](C)C[C@H](C)/C=C/C=C/C=C/1C [Example 2] | < 1 |  |  |  |  |  | 3.16 to 31.6 | 31.6 to 1000 |
| CO[C@H]1C[C@@H]2CC[C@@H](C)[C@@](O)(O2)C(=O)C(=O)N2CCCC[C@H]2C(=O)O[C@H]([C@H](C)C[C@@H]2CC[C@@H](OCCCCc3cn(CCOCCOCCOCCOCCOCCOCCC(=O)NCCCCn4nc(-c5ccc6oc(N)nc6c5)c5c(N)ncnc54)nn3)[C@H](OC)C2)CC(=O)[C@H](C)/C=C(\C)[C@@H](O)[C@@H](OC)C(=O)[C@H](C)C[C@H](C)/C=C/C=C/C=C/1C [Example 3] | < 1 |  |  |  |  |  | < 3.16 | 3.16 to 31.6 |
| CO[C@H]1C[C@@H]2CC[C@@H](C)[C@@](O)(O2)C(=O)C(=O)N2CCCC[C@H]2C(=O)O[C@H]([C@H](C)C[C@@H]2CC[C@@H](OCCCCc3cn(CCOCCOCCOCCOCCOCCOCCOCCOCCC(=O)NCCCCn4nc(I)c5c(N)ncnc54)nn3)[C@H](OC)C2)CC(=O)[C@H](C)/C=C(\C)[C@@H](O)[C@@H](OC)C(=O)[C@H](C)C[C@H](C)/C=C/C=C/C=C/1C [Example 4] | < 1 | > 1000 | > 1000 |  |  |  |  |  |
| CO[C@H]1C[C@@H]2CC[C@@H](C)[C@@](O)(O2)C(=O)C(=O)N2CCCC[C@H]2C(=O)O[C@H]([C@H](C)C[C@@H]2CC[C@@H](OCCCCc3cn(CCOCCOCCOCCOCCOCCOCCOCCOCCC(=O)NCCCCn4ncc5c(N)ncnc54)nn3)[C@H](OC)C2)CC(=O)[C@H](C)/C=C(\C)[C@@H](O)[C@@H](OC)C(=O)[C@H](C)C[C@H](C)/C=C/C=C/C=C/1C [Example 5] | < 1 | 31.6 to 1000 | > 1000 |  |  |  |  |  |
| CO[C@H]1C[C@@H]2CC[C@@H](C)[C@@](O)(O2)C(=O)C(=O)N2CCCC[C@H]2C(=O)O[C@H]([C@H](C)C[C@@H]2CC[C@@H](OCCCCc3cn(CCOCCOCCOCCOCCOCCOCCC(=O)NCCCCn4ncc5c(N)ncnc54)nn3)[C@H](OC)C2)CC(=O)[C@H](C)/C=C(\C)[C@@H](O)[C@@H](OC)C(=O)[C@H](C)C[C@H](C)/C=C/C=C/C=C/1C [Example 6] | < 1 | > 1000 | > 1000 |  |  |  |  |  |
| CO[C@H]1C[C@@H]2CC[C@@H](C)[C@@](O)(O2)C(=O)C(=O)N2CCCC[C@H]2C(=O)O[C@H]([C@H](C)C[C@@H]2CC[C@@H](OCCCCc3cn(CCOCCOCCOCCOCCOCCOCCOCCOCCC(=O)N4CCC(Cn5nc(-c6ccc7oc(N)nc7c6)c6c(N)ncnc65)C4)nn3)[C@H](OC)C2)CC(=O)[C@H](C)/C=C(\C)[C@@H](O)[C@@H](OC)C(=O)[C@H](C)C[C@H](C)/C=C/C=C/C=C/1C (stereo partly shown) [Example 7] | < 1 | < 3.16 | < 3.16 |  |  |  |  |  |
| CO[C@H]1C[C@@H]2CC[C@@H](C)[C@@](O)(O2)C(=O)C(=O)N2CCCC[C@H]2C(=O)O[C@H]([C@H](C)C[C@@H]2CC[C@@H](OCCCCc3cn(CCOCCOCCOCCOCCOCCOCCC(=O)N4CCC(Cn5nc(-c6ccc7oc(N)nc7c6)c6c(N)ncnc65)C4)nn3)[C@H](OC)C2)CC(=O)[C@H](C)/C=C(\C)[C@@H](O)[C@@H](OC)C(=O)[C@H](C)C[C@H](C)/C=C/C=C/C=C/1C (stereo partly shown) [Example 8] | < 1 | < 3.16 | 3.16 to 31.6 |  |  |  |  |  |
| CO[C@H]1C[C@@H]2CC[C@@H](C)[C@@](O)(O2)C(=O)C(=O)N2CCCC[C@H]2C(=O)O[C@H]([C@H](C)C[C@@H]2CC[C@@H](OCCOCc3cn(CCOCCOCCOCCOCCOCCOCCOCCOCCC(=O)NCCCCn4nc(-c5ccc6oc(N)nc6c5)c5c(N(C)C)ncnc54)nn3)[C@H](OC)C2)CC(=O)[C@H](C)/C=C(\C)[C@@H](O)[C@@H](OC)C(=O)[C@H](C)C[C@H](C)/C=C/C=C/C=C/1C [Example 9] | < 1 | > 1000 | > 1000 |  |  |  |  |  |
| CO[C@H]1C[C@@H]2CC[C@@H](C)[C@@](O)(O2)C(=O)C(=O)N2CCCC[C@H]2C(=O)O[C@H]([C@H](C)C[C@@H]2CC[C@@H](OCCOCc3cn(CCOCCOCCOCCOCCOCCOCCC(=O)NCCCCn4nc(-c5ccc6oc(N)nc6c5)c5c(N(C)C)ncnc54)nn3)[C@H](OC)C2)CC(=O)[C@H](C)/C=C(\C)[C@@H](O)[C@@H](OC)C(=O)[C@H](C)C[C@H](C)/C=C/C=C/C=C/1C [Example 10] | < 1 | > 1000 | > 1000 |  |  |  |  |  |
| COc1ccc(-c2ccc3ncc4c(c3c2)n(-c2ccc(N3CCN(C(=O)CCOCCOCCOCCOCCOCCOCCOCCOCCn5cc(CCCCO[C@@H]6CC[C@@H](C[C@@H](C)[C@@H]7CC(=O)[C@H](C)/C=C(\C)[C@@H](O)[C@@H](OC)C(=O)[C@H](C)C[C@H](C)/C=C/C=C/C=C(\C)[C@@H](OC)C[C@@H]8CC[C@@H](C)[C@@](O)(O8)C(=O)C(=O)N8CCCC[C@H]8C(=O)O7)C[C@H]6OC)nn5)CC3)c(C(F)(F)F)c2)c(=O)n4C)cn1 [Example 11] | < 1 | < 3.16 | < 3.16 |  |  |  |  |  |

— patent US20230093861A1, “RAPAMYCIN ANALOGS AS MTOR INHIBITORS” (Revolution Medicines, Inc., priority 2017, published 2023)
